Measured values published in the NIST ThermoML archive (doi:10.1016/j.jct.2014.03.029).

Tests used:
[1] = molar heat capacity at constant pressure; details: 100 kPa, Liquid, Small sample (50 mg) DSC
[2] = Crystal; DTA
[3] = Molar enthalpy of transition or fusion; details: Crystal; DSC
[4] = molar heat capacity at constant pressure; xn = mol fraction of the nth substance listed; details: 100 kPa, Liquid, Small sample (50 mg) DSC

c1ccc(-c2ccccc2)cc1 [biphenyl]
[1]
Details | molar heat capacity at constant pressure [J/K/mol]
353.15 K | 271.56
373.15 K | 280.81

Details | Molar enthalpy of transition or fusion [kcal/mol] | Normal melting temperature [°C]
[2] | – | 69.0
[3] | 4.43 | –

c1ccc(-c2ccccc2)cc1 [biphenyl] + c1ccc(Oc2ccccc2)cc1
[4], x2 = 0
Details | molar heat capacity at constant pressure [J/K/mol]
353.15 K | 271.56
373.15 K | 280.81

c1ccc(Oc2ccccc2)cc1 [diphenyl ether]
[1]
Details | molar heat capacity at constant pressure [J/K/mol]
313.15 K | 261.61
333.15 K | 272.33
353.15 K | 281.69
373.15 K | 290.88

Details | Molar enthalpy of transition or fusion [kcal/mol] | Normal melting temperature [°C]
[2] | – | 26.98
[3] | 4.07 | –

c1ccc(Oc2ccccc2)cc1 [diphenyl ether] + c1ccc(-c2ccccc2)cc1
molar heat capacity at constant pressure [J/K/mol], [4]
Details | x1 = 0.05 | x1 = 0.15 | x1 = 0.2499 | x1 = 0.4 | x1 = 0.55 | x1 = 0.705 | x1 = 0.85 | x1 = 0.95 | x1 = 1
293.15 K | – | – | – | – | – | 263.62 | – | – | –
313.15 K | – | – | – | – | 271.57 | 271.4 | 267.65 | 262.24 | 261.61
333.15 K | – | – | 270.37 | 273.51 | 278.25 | 279.18 | 276.55 | 272.24 | 272.33
353.15 K | 272.81 | 277.2 | 279.39 | 282.35 | 285.59 | 286.13 | 285.61 | 281.72 | 281.69
373.15 K | 282.42 | 285.5 | 286.99 | 290.38 | 292.44 | 293.24 | 294.5 | 290.87 | 290.88
